Laboratory results reported in patent US20040266732A1, “Therapeutic agents, methods, and treatments” (priority 2002, published 2004).

What was measured:
Assay in all cases: NCI 60 cell-line test
Format in all cases: cell-based, human
ACHN = ACHN (Renal Cancer)
Method in brief: (§1)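 MT103, diluted from a DMSO concentrate into medium with gentamicin, is applied for 48 h at 37° C, 5% CO2. Cell protein is measured by sulforhodamine B absorbance at 515 nm.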

HCT-15 = HCT-15 (Colon Cancer)
Method in brief: as §1

HOP-92 = system: HOP-92
Method in brief: as §1

MALME-3M = MALME-3M (Melanoma)
Method in brief: as §1

MDA-MB-231/ATCC = MDA-MB-231/ATCC (Breast Cancer)
Method in brief: as §1

MOLT-4 = MOLT-4 (Leukemia)
Method in brief: as §1

NCI-H23 = NCI-H23 (Non-Small Cell Lung Cancer)
Method in brief: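 Plating densities of 5,000 to 40,000 cells/well depended on doubling time; drug was added after 24 h preincubation. Plates were incubated 48 h more, fixed with cold TCA (suspension cells with 80% TCA), stained with 0.4% SRB and read at 515 nm.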

NCI-H322M = NCI-H322M (Non-Small Cell Lung Cancer)
Method in brief: as §1

OVCAR-4 = OVCAR-4 (Ovarian Cancer)
Method in brief: as §1

OVCAR-8 = OVCAR-8 (Ovarian Cancer)
Method in brief: as §1

SF-295 = SF-295 (CNS Cancer)
Method in brief: as §1

SNB-75 = SNB-75 (CNS Cancer)
Method in brief: as §1

SW-620 = SW-620 (Colon Cancer)
Method in brief: as §1

[1] = read-out: LC50 (the source's name)

SMILES: CC1(C)C2CC[C@@]1(CS(=O)(=O)N(C1CCCCC1)C1CCCCC1)C(O)C2 (stereo partly drawn) [MT103]
- TGI (ACHN): >1.00E−04
- IC50 (ACHN; read-out: G150): 23.8 µM
- CC50 (ACHN; [1]): > 100 µM
- TGI (HCT-15): >1.00E−04
- IC50 (HCT-15; read-out: G150): 25.7 µM
- CC50 (HCT-15; [1]): > 100 µM
- TGI (HOP-92; HOP-92 (Non-Small Cell Lung Cancer)): 3.16E−05
- IC50 (HOP-92; HOP-92 (Non-Small Cell Lung Cancer), read-out: G150): 2750 nM
- CC50 (HOP-92; HOP-92 (Non-Small Cell Lung Cancer), read-out: LC50 (the source's name)): > 100 µM
- −logGI50 value (HOP-92; HOP-92, as tested by the NCI, FIG. 1): 5.6
- TGI (MALME-3M): 4.44E−05
- IC50 (MALME-3M; read-out: G150): 13.1 µM
- CC50 (MALME-3M; [1]): > 100 µM
- TGI (MDA-MB-231/ATCC): 4.71E−05
- IC50 (MDA-MB-231/ATCC; read-out: G150): 16.9 µM
- CC50 (MDA-MB-231/ATCC; [1]): > 100 µM
- TGI (MOLT-4): >1.00E−04
- IC50 (MOLT-4; read-out: G150): 20.6 µM
- CC50 (MOLT-4; [1]): > 100 µM
- IC50 (NCI-H23; read-out: G150): 26.9 µM
- CC50 (NCI-H23; [1]): > 100 µM
- TGI (NCI-H322M): >1.00E−04
- IC50 (NCI-H322M; read-out: G150): 27.3 µM
- CC50 (NCI-H322M; [1]): > 100 µM
- TGI (OVCAR-4): >1.00E−04
- IC50 (OVCAR-4; read-out: G150): 30.2 µM
- CC50 (OVCAR-4; [1]): > 100 µM
- TGI (OVCAR-8): >1.00E−04
- IC50 (OVCAR-8; read-out: G150): 25.3 µM
- CC50 (OVCAR-8; [1]): > 100 µM
- TGI (SF-295): >1.00E−04
- IC50 (SF-295; read-out: G150): 22.6 µM
- CC50 (SF-295; [1]): > 100 µM
- LC50 (concentration killing 50% of tumour cells) (SNB-75): > 100 µM
- TGI (SNB-75): 8.83E−05
- IC50 (SNB-75; read-out: G150): 19.5 µM
- TGI (SW-620): >1.00E−04
- IC50 (SW-620; read-out: G150): 28.8 µM
- CC50 (SW-620; [1]): > 100 µM
